Assay: xn = mol fraction of the nth substance listed
Conditions: Liquid, Vibrating tube method

CCCCCCC [heptane] + O=C=O
Conditions | mass density [kg/m3]
332.8 K, 25003 kPa, x2 = 0.0218 | 677.55
332.83 K, 6993 kPa, x2 = 0.5085 | 682.63
332.83 K, 8019 kPa, x2 = 0.5085 | 685.45
332.83 K, 9012 kPa, x2 = 0.5085 | 688
332.83 K, 10004 kPa, x2 = 0.5085 | 690.4
332.83 K, 11006 kPa, x2 = 0.5085 | 692.81
332.83 K, 12005 kPa, x2 = 0.5085 | 695.15
332.83 K, 13003 kPa, x2 = 0.5085 | 697.36
332.83 K, 13999 kPa, x2 = 0.5085 | 699.53
332.83 K, 15005 kPa, x2 = 0.5085 | 701.72
332.83 K, 16003 kPa, x2 = 0.5085 | 703.82
332.83 K, 17000 kPa, x2 = 0.5085 | 706.1
332.83 K, 18006 kPa, x2 = 0.5085 | 708.26
332.83 K, 19000 kPa, x2 = 0.5085 | 710.51
332.83 K, 20000 kPa, x2 = 0.5085 | 712.6
332.83 K, 20991 kPa, x2 = 0.5085 | 714.75
332.83 K, 22000 kPa, x2 = 0.5085 | 716.83
332.83 K, 23003 kPa, x2 = 0.5085 | 718.86
332.83 K, 24000 kPa, x2 = 0.5085 | 720.81
332.83 K, 25002 kPa, x2 = 0.5085 | 722.78
342.59 K, 5015 kPa, x2 = 0.3148 | 660.43
342.59 K, 6006 kPa, x2 = 0.3148 | 662.35
342.59 K, 7008 kPa, x2 = 0.3148 | 664.12
342.59 K, 8003 kPa, x2 = 0.3148 | 665.96
342.59 K, 9023 kPa, x2 = 0.3148 | 667.75
342.59 K, 10000 kPa, x2 = 0.3148 | 669.58
342.59 K, 11004 kPa, x2 = 0.3148 | 671.39
342.59 K, 11999 kPa, x2 = 0.7514 | 668.27
342.59 K, 12012 kPa, x2 = 0.3148 | 673.16
342.59 K, 13009 kPa, x2 = 0.3148 | 674.92
342.59 K, 13078 kPa, x2 = 0.7514 | 677.39
342.59 K, 14002 kPa, x2 = 0.7514 | 684.02
342.59 K, 14006 kPa, x2 = 0.3148 | 676.58
342.59 K, 14980 kPa, x2 = 0.7514 | 690.44
342.59 K, 15007 kPa, x2 = 0.3148 | 678.19
342.59 K, 16000 kPa, x2 = 0.3148 | 679.78
342.59 K, 16000 kPa, x2 = 0.7514 | 696.41
342.59 K, 17006 kPa, x2 = 0.7514 | 701.98
342.59 K, 17008 kPa, x2 = 0.3148 | 681.37
342.59 K, 18003 kPa, x2 = 0.7514 | 707.17
342.59 K, 18004 kPa, x2 = 0.3148 | 682.88
342.59 K, 18988 kPa, x2 = 0.7514 | 711.38
342.59 K, 19000 kPa, x2 = 0.3148 | 684.38
342.59 K, 20000 kPa, x2 = 0.3148 | 685.86
342.59 K, 20006 kPa, x2 = 0.7514 | 716.85
342.59 K, 21010 kPa, x2 = 0.7514 | 721.31
342.59 K, 21018 kPa, x2 = 0.3148 | 687.3
342.59 K, 22004 kPa, x2 = 0.7514 | 725.37
342.59 K, 22006 kPa, x2 = 0.3148 | 688.68
342.59 K, 23009 kPa, x2 = 0.7514 | 729.36
342.59 K, 23014 kPa, x2 = 0.3148 | 690.13
342.59 K, 24006 kPa, x2 = 0.7514 | 733.15
342.59 K, 24010 kPa, x2 = 0.3148 | 691.48
342.59 K, 24951 kPa, x2 = 0.7514 | 736.71
342.59 K, 25016 kPa, x2 = 0.3148 | 692.87
342.68 K, 4004 kPa, x2 = 0.0218 | 646.95
342.68 K, 5003 kPa, x2 = 0.0218 | 648.26
342.68 K, 6004 kPa, x2 = 0.0218 | 649.55
342.68 K, 7009 kPa, x2 = 0.0218 | 650.86
342.68 K, 7996 kPa, x2 = 0.0218 | 652.09
342.68 K, 9017 kPa, x2 = 0.0218 | 653.32
342.68 K, 9997 kPa, x2 = 0.0218 | 654.54
342.68 K, 11003 kPa, x2 = 0.0218 | 655.71
342.68 K, 11998 kPa, x2 = 0.0218 | 656.85
342.68 K, 13010 kPa, x2 = 0.0218 | 657.99
342.68 K, 14002 kPa, x2 = 0.0218 | 659.11
342.68 K, 15008 kPa, x2 = 0.0218 | 660.22
342.68 K, 16006 kPa, x2 = 0.0218 | 661.28
342.68 K, 17003 kPa, x2 = 0.0218 | 662.36
342.68 K, 18003 kPa, x2 = 0.0218 | 663.38
342.68 K, 19002 kPa, x2 = 0.0218 | 664.4
342.68 K, 20005 kPa, x2 = 0.0218 | 665.4
342.68 K, 21007 kPa, x2 = 0.0218 | 666.43
342.68 K, 22003 kPa, x2 = 0.0218 | 667.43
342.68 K, 23010 kPa, x2 = 0.0218 | 668.42
342.68 K, 24005 kPa, x2 = 0.0218 | 669.41
342.68 K, 25003 kPa, x2 = 0.0218 | 670.37
342.71 K, 13106 kPa, x2 = 0.9496 | 500.65
342.71 K, 13985 kPa, x2 = 0.9496 | 541.93
342.71 K, 15012 kPa, x2 = 0.9496 | 579.95
342.71 K, 16000 kPa, x2 = 0.9496 | 609.5
342.71 K, 17009 kPa, x2 = 0.9496 | 634.13
342.71 K, 17984 kPa, x2 = 0.9496 | 654.42
342.71 K, 18996 kPa, x2 = 0.9496 | 672.31
342.71 K, 19994 kPa, x2 = 0.9496 | 687.85
342.71 K, 20999 kPa, x2 = 0.9496 | 701.79
342.71 K, 22001 kPa, x2 = 0.9496 | 714.18
342.71 K, 23009 kPa, x2 = 0.9496 | 725.67
342.71 K, 23985 kPa, x2 = 0.9496 | 735.74
342.71 K, 24518 kPa, x2 = 0.9496 | 740.87
342.73 K, 8002 kPa, x2 = 0.5085 | 670.04
342.73 K, 9011 kPa, x2 = 0.5085 | 673.34
342.73 K, 10003 kPa, x2 = 0.5085 | 676.47
342.73 K, 11006 kPa, x2 = 0.5085 | 679.46
342.73 K, 12005 kPa, x2 = 0.5085 | 682.3
342.73 K, 13011 kPa, x2 = 0.5085 | 685.03
342.73 K, 14001 kPa, x2 = 0.5085 | 687.62
342.73 K, 15001 kPa, x2 = 0.5085 | 690.13
342.73 K, 16006 kPa, x2 = 0.5085 | 692.58
342.73 K, 17007 kPa, x2 = 0.5085 | 694.92
342.73 K, 17999 kPa, x2 = 0.5085 | 697.18
342.73 K, 19004 kPa, x2 = 0.5085 | 699.4
342.73 K, 20003 kPa, x2 = 0.5085 | 701.54
342.73 K, 21007 kPa, x2 = 0.5085 | 703.69
342.73 K, 22001 kPa, x2 = 0.5085 | 705.73
342.73 K, 23008 kPa, x2 = 0.5085 | 707.8
342.73 K, 23998 kPa, x2 = 0.5085 | 709.81
342.73 K, 25003 kPa, x2 = 0.5085 | 711.79
351.97 K, 7006 kPa, x2 = 0.3148 | 652.07
351.97 K, 8006 kPa, x2 = 0.3148 | 654.34
351.97 K, 9004 kPa, x2 = 0.3148 | 656.45
351.97 K, 10010 kPa, x2 = 0.3148 | 658.6
351.97 K, 11002 kPa, x2 = 0.3148 | 660.62
351.97 K, 12003 kPa, x2 = 0.3148 | 662.65
351.97 K, 13003 kPa, x2 = 0.3148 | 664.59
351.97 K, 14001 kPa, x2 = 0.3148 | 666.48
351.97 K, 15008 kPa, x2 = 0.3148 | 668.29
351.97 K, 15998 kPa, x2 = 0.3148 | 670.12
351.97 K, 17018 kPa, x2 = 0.3148 | 671.87
351.97 K, 17988 kPa, x2 = 0.3148 | 673.47
351.97 K, 19003 kPa, x2 = 0.3148 | 675.21
351.97 K, 20004 kPa, x2 = 0.3148 | 676.85
351.97 K, 21004 kPa, x2 = 0.3148 | 678.45
351.97 K, 22002 kPa, x2 = 0.3148 | 680.02
351.97 K, 22992 kPa, x2 = 0.3148 | 681.54
351.97 K, 23999 kPa, x2 = 0.3148 | 683.05
351.97 K, 25008 kPa, x2 = 0.3148 | 684.53
352.3 K, 12013 kPa, x2 = 0.7514 | 641.2
352.3 K, 13001 kPa, x2 = 0.7514 | 649.87
352.3 K, 14004 kPa, x2 = 0.7514 | 657.71
352.3 K, 15036 kPa, x2 = 0.7514 | 665.3
352.3 K, 16003 kPa, x2 = 0.7514 | 671.66
352.3 K, 17017 kPa, x2 = 0.7514 | 677.97
352.3 K, 18016 kPa, x2 = 0.7514 | 683.63
352.3 K, 18998 kPa, x2 = 0.7514 | 689.01
